Consider one molecule from ChEMBL document CHEMBL1687746, “Impact of sarA on daptomycin susceptibility of Staphylococcus aureus biofilms in vivo” (2009).

In assay [1] the test system is Staphylococcus aureus. Description: Antimicrobial activity against Staphylococcus aureus UAMS-1653 assessed as bacterial load in catheter at 10 times MIC. The assay is classed as functional.
The test system of assay [2] is Staphylococcus aureus. Description: Antimicrobial activity against Staphylococcus aureus UAMS-1625 sarA mutant by Etest method. The assay is classed as functional.
Assay [3] relates to Staphylococcus aureus. Description: Antimicrobial activity against Staphylococcus aureus UAMS-1625 assessed as bacterial load in catheter at 10 times MIC. The assay is classed as functional.
Assay [4] relates to Staphylococcus aureus. Description: Antimicrobial activity against Staphylococcus aureus UAMS-1625 by Etest method. It counts as functional.
The subject of assay [5] is Staphylococcus aureus. Description: Antimicrobial activity against Staphylococcus aureus UAMS-1 assessed as reduction in bacterial load in catheter at 20 ug/ml for 3 days. It counts as functional, organism-based.
For assay [6], the system named is Staphylococcus aureus. Description: Antimicrobial activity against Staphylococcus aureus UAMS-1 sarA mutant by Etest method.
Assay [7] deals with Staphylococcus aureus. Description: Antimicrobial activity against Staphylococcus aureus UAMS-1 assessed as bacterial load in catheter at 20 times MIC. It counts as functional.
Assay [8] has as its system Staphylococcus aureus. Description: Antimicrobial activity against Staphylococcus aureus UAMS-929 assessed as bacterial load in catheter at 20 times MIC. The assay is classed as functional.
Assay [9] relates to Staphylococcus aureus. Description: Antimicrobial activity against Staphylococcus aureus UAMS-1 by Etest method.
The test system of assay [10] is Staphylococcus aureus. Description: Antimicrobial activity against Staphylococcus aureus UAMS-1625 reduction in bacterial load in catheter at 20 ug/ml for 3 days. It counts as functional, organism-based.
The test system of assay [11] is Staphylococcus aureus. Description: Antimicrobial activity against Staphylococcus aureus UAMS-1 assessed as reduction in bacterial load in catheter at >/= 10 ug/ml for 3 days. The assay is classed as functional, organism-based.

≈ marks a conversion by molar mass, not a printed value. Calls of active or inactive are those of the source. No cut-off for these calls is given here.

One may read the MIC as the lowest concentration that inhibits growth of the organism. On to `CCCCCCCCCC(=O)N[C@@H](Cc1c[nH]c2ccccc12)C(=O)N[C@H](CC(N)=O)C(=O)N[C@@H](CC(=O)O)C(=O)N[C@@H]1C(=O)NCC(=O)N[C@@H](CCCN)C(=O)N[C@@H](CC(=O)O)C(=O)N[C@H](C)C(=O)N[C@@H](CC(=O)O)C(=O)NCC(=O)N[C@H](CO)C(=O)N[C@@H]([C@H](C)CC(=O)O)C(=O)N[C@@H](CC(=O)c2ccccc2N)C(=O)O[C@@H]1C`, for which the Activity is listed as 69% in assay [1], 6.3% in assay [3], 6.7% in assay [7] and 46.4% in assay [8]. For the same molecule, the MIC in assay [2] was 0.38 µg/mL (≈ 0.234 µM); in [4], 0.38 µg/mL (≈ 0.234 µM); in assay [6] it was 0.5 µg/mL (≈ 0.309 µM); in assay [9], 0.5 µg/mL (≈ 0.309 µM). For the same molecule, the outcome in assay [5] was inactive. The result in [10] and in assay [11] was Active.
